Source: ChEMBL document CHEMBL3507680, “University of Dundee, Gates Library screen for HepG2 cell viability”

Test: Human HepG2 cell viability assay in 384 well format
Assay type: toxicity, cell-based
Design: dose 125 nL, time 70.5 hour; cytotoxicity at 70.5 h: concentration not given beside the values
Conditions: HepG2 cells, read-out: Inhibition

Compound | cytotoxicity at 70.5 h
COc1ccc(-n2ncc3c2NC(=O)CSC3C(C)C)cc1 (stereo not drawn) | -3.9%
O=C(CN1C(=O)CC2(CCCC2)C1=O)NCCc1nccs1 | -14.1%
Cc1nn(-c2ccc(C(=O)O)cc2)c2c1C(c1ccsc1)SCC(=O)N2 (stereo not drawn) | -1.43%
COCCn1ccc2c(C(=O)Nc3nc4c(s3)CCC4)cccc21 | -1.37%
CC(C)CC1SCC(=O)Nc2c1cnn2-c1ccccc1F (stereo not drawn) | -22.8%
CC(C)Cn1cc(C(=O)NC2CCS(=O)(=O)C2)c2ccccc2c1=O (stereo not drawn) | -13.3%
Cc1cc(C)nc(N2CCC(C(=O)Nc3n[nH]c(C(C)C)n3)CC2)n1 | -11.5%
Cn1ccc2cc(C(=O)Nc3nc[nH]n3)ccc21 | 15.8%
Cc1cc(C)nc(-n2nc(C)c3c2NC(=O)CSC3c2cnn(C)c2)n1 (stereo not drawn) | -31.4%
CC(C)c1nn2c(-c3cnn(C)c3)nnc2s1 | -9.47%
Cn1ccc2ccc(C(=O)Nc3nc[nH]n3)cc21 | 13.7%
Cc1cc(C)nc(N2CCC(C(=O)Nc3ncc[nH]3)CC2)n1 | -7.67%
CN1CCN(CCCNC(=O)CCc2nc3cc(Br)cnc3[nH]2)CC1 | -31%
COCc1nnc(NC(=O)c2cn(C(C)C)c3ccc(OC)cc23)s1 | -10.1%
Cc1cc(O)cc(=O)n1CCCC(=O)Nc1n[nH]c2cc(Br)ccc12 | -13.4%
CC(C)C1SCC(=O)Nc2c1cnn2-c1ccc(F)cc1 (stereo not drawn) | -1.99%
Cc1nn(-c2ncccn2)c2c1C(c1cnn(C)c1C)SCC(=O)N2 (stereo not drawn) | -22.5%
CC(C)C1SCC(=O)Nc2c1c(O)nn2C1CCCC1 (stereo not drawn) | -23.1%
O=c1c(CN2CCCCCC2)coc(O)c1CN1CCOCC1 | -2.1%
C[C@@H](O)CNC(=O)CCc1nc2cccnc2[nH]1 | -23.4%
Cn1ccc2cc(C(=O)NC3CCS(=O)(=O)C3)ccc21 (stereo not drawn) | -10.9%
COc1ccc2cc(NC(=O)CCNc3nc(C)cc(C)n3)cnc2c1 | -24.1%
Cc1ccc(S(=O)(=O)c2ncccc2CN2CCOCC2)cc1 | -17.9%

Compound | cytotoxicity at 70.5 h
O=C1CCC(c2ccccc2)=NN1CN1CCCCCC1 | -14%
CC(C)CC1SCC(=O)Nc2c1cnn2C1CCCC1 (stereo not drawn) | -18.7%
Cc1c(C2SCC(=O)Nc3c2c(O)nn3C(C)C)cnn1C (stereo not drawn) | -26.6%
CC(C)n1ncc2c1NC(=O)CSC2C(F)(F)F (stereo not drawn) | -21%
COc1ccc2cc(NC(=O)CCNc3ncccn3)cnc2c1 | -29.1%
O=C(NCCc1nccs1)c1n[nH]c2c1CCC2 | -11.1%
CC(C)c1sc(Br)nc1C(=O)NCc1ccco1 | 32.2%
COc1cccc2c1ccn2CCNC(=O)CCNc1ncccn1 | -18%
CS(=O)(=O)N1CCN(C(=O)c2cc(-c3ccc(Br)s3)n[nH]2)CC1 | -10.2%
Cc1cc(C)nc(N2CCC(C(=O)Nc3n[nH]c(C)n3)CC2)n1 | -7.75%
COc1ccccc1-c1cc(C(=O)Nc2nc[nH]n2)[nH]n1 | -12.9%
COc1ccc(CNC(=O)CCc2nnc3ccccn3c2=O)cc1 | 20.7%
Cn1cc(NC(=O)C2CC(=O)N(c3n[nH]c4cccc(F)c34)C2)cn1 (stereo not drawn) | -26.5%
O=C(C1CC(=O)N(c2n[nH]c3cc(Br)ccc23)C1)N1CCSCC1 (stereo not drawn) | -9.09%
Cn1cnc2cc(CCC(=O)Nc3n[nH]c(C4CCCO4)n3)ccc21 (stereo not drawn) | 1.89%
Cc1cc(-c2nn3c(C(C)C)nnc3s2)on1 | -10.1%
O=C(Cn1cnc2sccc2c1=O)NCCc1nnc2ccccn12 | -11.3%
COCCn1cnc2ccc(NC(=O)CCCn3cccn3)cc2c1=O | -7.81%
Cn1cc(C2SCC(=O)Nc3c2c(=O)[nH]n3C2CCOCC2)cn1 (stereo not drawn) | 17.2%
CC(C)n1ccc2c(C(=O)NC3CN4CCC3CC4)cccc21 (stereo not drawn) | -17.6%
CC(C)c1nc2cc(NC(=O)c3n[nH]c4c3CCC4)ccc2n1C | -9.08%
COCCn1cnc2ccc(NC(=O)C3CC3)cc2c1=O | -8.53%
COCCn1cnc2ccc(NC(=O)C(C)C)cc2c1=O | -7.01%

Compound | cytotoxicity at 70.5 h
O=C(Nc1nc[nH]n1)c1cc(-c2ccc(F)cc2)n[nH]1 | -14.4%
Cc1nc(C(=O)N2CCN(S(C)(=O)=O)CC2)c(-c2ccccc2Cl)s1 | 16%
Cc1cc(C)n(-c2cccc(C(=O)Nc3n[nH]c(C4CCCO4)n3)c2)n1 (stereo not drawn) | -8.19%
Cc1cc(C(=O)Nc2n[nH]c(C3CC3)n2)c2c(C)nn(C)c2n1 | 25.6%
COc1ccc(CC(=O)Nc2ccc3ncn(C(C)C)c(=O)c3c2)cc1 | -5.16%
COc1ccc(CCC(=O)Nc2ccc3ncn(C)c(=O)c3c2)cc1 | -2.91%
COc1cn(CC(=O)N2CCC(c3ccccc3)CC2)c(C)cc1=O | 23.7%
COc1ccc2c(ccn2CCC(=O)Nc2n[nH]c(CC(C)C)n2)c1 | 24%
Cc1[nH]nc(-c2ccc(F)cc2)c1CC(=O)NCC1CCOCC1 | -9.72%
COc1ccc(NC(=O)c2nc(C)sc2C)cn1 | 28%
Cn1cnc2cc(CCC(=O)Nc3n[nH]c(C4CC4)n3)ccc21 | 17.9%
CC(C)Cc1nc(NC(=O)c2cccnc2)n[nH]1 | -14.7%
COC(=O)CNC(=O)c1nc(Br)sc1C(C)C | 42.9%
O=C1CSC(c2ccc(Cl)cc2Cl)c2c(n(C3CCOCC3)[nH]c2=O)N1 (stereo not drawn) | -23.1%
COc1ccc(C(=O)Nc2n[nH]c(C3CCCO3)n2)cc1 (stereo not drawn) | 26.5%
COc1ccc2c(ccn2CC(=O)Nc2n[nH]c(CC(C)C)n2)c1 | -11.7%
CCN1CCCC1CNC(=O)Cc1c(C)n[nH]c1-c1ccc(OC)cc1 (stereo not drawn) | 24.8%
CC(C)Cn1ccc2c(NC(=O)c3n[nH]c4c3CCC4)cccc21 | 5.24%
CC(=O)Nc1cccc2c1ccn2CC(=O)Nc1ncc[nH]1 | -5.41%
COc1ccc2nnc(CCCC(=O)NCCc3ccccn3)n2n1 | -3.59%
CC(=O)Nc1cccc2c1ccn2CC(=O)Nc1nc[nH]n1 | -2.28%
COc1ccc2c(c1)s/c(=N\C(=O)CSCC(=O)Nc1nccs1)n2C | 16.4%
COCCN(C)C(=O)c1nc2c(s1)CCCN2S(C)(=O)=O | 3.66%

Compound | cytotoxicity at 70.5 h
CC(C)NC(=O)[C@H]1C[C@H]2NCCO[C@@H]2C1 | 3.88%
O=C(Nc1ccccc1)N1C[C@@H]2OCCN(C(=O)c3ccco3)[C@@H]2C1 | -0.595%
Cc1cnc(N2C[C@@H]3[C@@H](C(=O)NCC(C)C)CCS(=O)(=O)[C@@H]3C2)nc1 | 0.36%
Cn1nc(CN2CCCC2)c2c1CN(C(=O)c1cnccn1)CC2 | -1.41%
CS(=O)(=O)N1CCCc2sc(C(=O)NC3CC3)nc21 | -3.24%
COCCO[C@H]1CCN(c2cc(OC)ncn2)[C@H]1Cc1cnn(C)c1 | -4.71%
O=S(=O)(C1CC1)N1CCO[C@@H]2CN(Cc3ccco3)C[C@@H]2C1 | -2.12%
CN1CCN(C(=O)C[C@@H]2COC[C@H]3CN(c4ccncn4)C[C@@H]23)CC1 | 12.2%
CC(C)NC(=O)c1nc2c(s1)CCCN2c1ccccc1 | 5.99%
COCC1CC2(CCN(C(=O)C3CCSCC3)CC2)CO1 (stereo not drawn) | 8.61%
CCOc1cc(C)nc(N2CCN(C(=O)c3cc[nH]n3)CC2)n1 | -3.5%
Cc1nc(C(=O)N2CCCC(c3cc(C(F)(F)F)[nH]n3)C2)c[nH]1 (stereo not drawn) | -6.23%
Cc1ccc(C(=O)N2CCCC(c3cc(C(F)(F)F)[nH]n3)C2)o1 (stereo not drawn) | -5.23%
Cc1ccc(C(=O)NS(=O)(=O)c2ccccc2F)c(=O)[nH]1 | -1.46%
Cc1ccc(CC(=O)N2CCOCC2c2ncon2)cc1 (stereo not drawn) | -5.42%
CC1CCN(CCCNC(=O)NC(C)c2nncn2C)CC1 (stereo not drawn) | -3.78%
Cn1ccc2c(C(=O)N3CCCC(c4nnc[nH]4)C3)cccc21 (stereo not drawn) | 4.32%
CCc1nc(C2CCCN2CC(=O)NCCc2ccsc2)no1 (stereo not drawn) | 0.0583%
CCOC1CCCN(C(=O)c2nn(-c3ccccc3F)cc2O)C1 (stereo not drawn) | -3.95%
C=C(Br)CN(C)C1CCN(CCc2ccccn2)CC1 | -6.85%
Cc1nc(CN2CCCC(N(C)CC3(O)CCCCC3)C2)no1 (stereo not drawn) | 0.0355%
CCc1noc(CN(C)CC(c2cccs2)N2CCOCC2)n1 (stereo not drawn) | -1.63%
Cc1noc(CN(C)CC(c2cccs2)N2CCOCC2)n1 (stereo not drawn) | -4.96%

Compound | cytotoxicity at 70.5 h
N#Cc1cc(F)ccc1CN1CCCCC1Cn1cccn1 (stereo not drawn) | -1.56%
N#Cc1ccc(CN2CCCC2Cn2cccn2)cc1 (stereo not drawn) | 2.25%
CC1COCCN1C(=O)Nc1cnc2c(cnn2C(C)C)c1 (stereo not drawn) | -2.52%
Cc1ncc(CN(C)CCO)c2cc(C(=O)c3ccc(Br)cc3)oc12 | -15.5%
Cn1nnc2c1CCN(Cc1ccoc1)C2COCc1ccccc1 (stereo not drawn) | 1.66%
CN(C)C1CC2(CCN(C(=O)c3csnn3)CC2)c2ccccc21 (stereo not drawn) | -0.291%
CCOC1CC2(CCN(Cc3cccn3C)CC2)C1 | 2.31%
Cc1cc(CN2C[C@@H]3CN(C(=O)c4cccn4C)CCO[C@@H]3C2)no1 | 1.95%
CC(C)COC1CC2(CCN(Cc3nccn3C)CC2)C1 | 6.92%
COC1CC2(CCN(Cc3nccn3C)CC2)C1 | -5.43%
O=C(c1ccsc1)N1CCO[C@@H]2CN(Cc3ccccn3)CC[C@@H]2C1 | 8.56%
CC(C)Nc1ncnc2c1CCN(C(=O)NCc1cccnc1)CC2 | -1.24%
CCOc1ncnc2c1CCN(C(=O)NCc1cccnc1)CC2 | 6.36%
CCS(=O)(=O)N1C[C@@H]2CN(Cc3ccco3)CCO[C@@H]2C1 | 27.9%
COc1cc(N2CCC3(CCCN(C(=O)c4cccnc4)C3)C2)ncn1 (stereo not drawn) | 16.7%
CCN1CCO[C@@H]2CN(C(=O)COC3CCCC3)C[C@@H]2C1 | 7.26%
Cc1cccc(COCC2c3nnn(C)c3CCN2Cc2ccoc2)n1 (stereo not drawn) | -5.52%
c1nc2n(c1CN1CCCCC1)CCN(C1CCOC1)CC2 (stereo not drawn) | -3.62%
CC(C)NC1CCc2c(ccc(=O)n2CCN(C)C)C1 (stereo not drawn) | 7.71%
COCCN1CCCn2cnc(CNC(=O)N(C)C)c2C1 | -3.75%
CN(C)Cc1noc2c1CN(C(=O)c1ccncc1)CC2 | 5.83%
